Experiment [1] concerns the target T1, 14-3-3 zeta (Homo sapiens, UniProt P63104).
T1 construct: made in house; host or cells: E. coli DH5α (vector pGEX-KT)
T1 sequence (P63104 1-245): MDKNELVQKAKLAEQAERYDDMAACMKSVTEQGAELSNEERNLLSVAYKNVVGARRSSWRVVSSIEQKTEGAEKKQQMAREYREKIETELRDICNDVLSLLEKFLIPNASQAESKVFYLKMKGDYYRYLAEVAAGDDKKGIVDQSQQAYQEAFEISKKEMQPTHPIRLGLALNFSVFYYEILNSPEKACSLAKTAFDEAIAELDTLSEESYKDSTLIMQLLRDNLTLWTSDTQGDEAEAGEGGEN
Kind of experiment: Surface plasmon resonance, GST-14-3-3 zeta binding to immobilized biotinylated Raf-259 peptide (binding and kinetics). The note with it: 14-3-3 zeta. As for the experimental part:
These experiments were performed using the BIAcore 2000 (Pharmacia). The basic principles and detection methods have been reviewed previously (Jonsson et al. Biotech. 11:620-7, 1991; Jonsson et al. Ann Bio Clin 51:19-26, 1993 which are incorporated by reference). In brief, 5 μl of the biotinylated raf-259 peptide (1 nM) was immobilized onto streptavidin-coated (SA5, Pharmacia) sensor chips at a flow rate of 5 μl/min at 25° C. […] To phosphorylate the immobilized peptides, 5 U of PKA in a buffer containing 200 μM ATP in 50 μl was infused over the chip at a flow rate of 2 μl/min at 30° C.
Because the surface plasmon resonance detects binding in real time, this method can be used to directly determine the rates of association (kon) and dissociation (koff). For these kinetic measurements, GST/14-3-3 fusion proteins were injected over a range of concentrations between 200 nM and 5 μM. The "on" rate, kon, was determined by calculating dR/dt for the initial linear portion of association using the Biaevaluation software (Pharmacia). Because ligand rebinding to the sensor chip can affect the "off" rate (koff, Panayotou et al. Mol Cell Biol 13:3567-76, 1993 which is incorporated by reference), we measured the "off" rate in the presence of 50 μM free ligand by using the coinject function of the Biacore. The "off" rate measured in the absence of 50 μM free ligand was approximately 10-fold lower.
The biotinylated, […] Raf-1 peptide (SEQ ID NO: 4) was coupled to avidin coated chip surface to study the kinetics of its binding to 14-3-3 zeta. The association rate was determined to be approximately 2.3×10^4 M^-1×s^-1 and the dissociation rate was determined to be approximately 2.8×10^-3 s^-1. To minimize the effects of protein rebinding to the surface of the sensor chip, the dissociation rate was measured in the presence of 50 μM free phosphorylated Raf-1 peptide.
(In SPR one partner is held on a chip, and binding of the other changes the refractive index at the surface.)

For a further experiment, the target named is T2, 14-3-3 beta (Homo sapiens, UniProt P31946).
T2 construct: made in house; host or cells: E. coli DH5α (vector pGEX-KT)
T2 sequence (P31946 1-246): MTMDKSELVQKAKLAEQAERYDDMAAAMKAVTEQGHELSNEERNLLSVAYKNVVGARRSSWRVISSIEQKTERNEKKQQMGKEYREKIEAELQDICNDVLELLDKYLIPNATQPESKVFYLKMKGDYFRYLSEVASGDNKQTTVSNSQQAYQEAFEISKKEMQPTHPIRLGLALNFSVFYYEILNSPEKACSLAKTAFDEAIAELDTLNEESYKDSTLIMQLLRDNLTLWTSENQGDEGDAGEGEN
The experiment is described as follows: SPR competitive inhibition of 14-3-3 beta binding to phosphorylated Raf-259 peptide. The note with it: isoform beta. The procedure: (§1) The ability of each peptide to inhibit binding of 14-3-3 zeta to the phosphorylated peptide was then tested in a range of concentrations between 1 and 50 μM. 14-3-3 zeta was prepared according to the methods in Example 1 and binding affinities and specificities were determined using the peptides in Table 2. The 14-3-3 zeta fusion proteins (0.5-1.0 μM) were pre-incubated with a given peptide at concentrations between 1 μM and 50 μM. 14-3-3 zeta was then infused across a sensor chip surface which had been previously coupled with the phosphorylated Raf-259 peptide (SEQ ID NO: 4). IC50 values were determined by plotting the concentration of competitor peptide required to achieve a 50% reduction in equilibrium binding.
(§2) There are seven known isoforms of 14-3-3 which form homo- and heterodimers in vivo. If different isoforms of 14-3-3 could bind to proteins with distinct specificities, heterodimeric forms of 14-3-3 might function as modular linker proteins, bringing together different proteins into a single complex. We were, therefore, interested in determining whether different 14-3-3 isoforms recognize phosphoserine in a sequence specific fashion. This hypothesis was tested by expressing and purifying three other 14-3-3 isoforms, eta, beta and tau, and measuring their affinity towards the panel of phosphorylated peptides generated above. Using the Surface Plasmon Resonance method, the "on" and "off" rates for 14-3-3 binding to the phosphorylated Raf-259 peptide were calculated (Table 6).
(§3) Competitive inhibition with the mutated phosphorylated Raf-1 peptides was used to determine whether their specificities were similar (Table 7). In each case, the calculated IC50 s were very similar to those calculated for 14-3-3 zeta.

Another experiment deals with T3, 14-3-3 tau (Homo sapiens, UniProt P27348).
T3 construct: made in house; host or cells: E. coli DH5α (vector pGEX-KT)
T3 sequence (P27348 1-245): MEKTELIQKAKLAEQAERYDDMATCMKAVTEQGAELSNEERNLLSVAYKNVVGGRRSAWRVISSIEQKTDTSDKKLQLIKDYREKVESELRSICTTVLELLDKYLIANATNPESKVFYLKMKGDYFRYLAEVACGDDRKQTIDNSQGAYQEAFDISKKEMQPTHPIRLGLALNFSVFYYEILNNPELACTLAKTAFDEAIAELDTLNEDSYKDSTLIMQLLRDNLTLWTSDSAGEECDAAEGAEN
Kind of experiment: SPR competitive inhibition of 14-3-3 tau binding to phosphorylated Raf-259 peptide. The note with it: isoform tau. As for the experimental part:
as §1, §2, §3

The next experiment deals with T4, 14-3-3 eta (Homo sapiens, UniProt Q04917).
T4 construct: made in house; host or cells: E. coli DH5α (vector pGEX-KT)
T4 sequence (Q04917 1-246): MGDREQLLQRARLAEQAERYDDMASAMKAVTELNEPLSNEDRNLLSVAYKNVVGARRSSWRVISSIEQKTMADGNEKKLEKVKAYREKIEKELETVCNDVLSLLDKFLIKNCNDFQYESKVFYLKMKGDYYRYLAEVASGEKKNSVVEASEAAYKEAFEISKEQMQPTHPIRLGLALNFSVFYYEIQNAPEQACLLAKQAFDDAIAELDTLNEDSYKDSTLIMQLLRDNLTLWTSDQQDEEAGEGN
Kind of experiment: SPR competitive inhibition of 14-3-3 eta binding to phosphorylated Raf-259 peptide. Particulars: isoform eta. The procedure: as §1, §2, §3

In experiment [2] the target is T1, 14-3-3 zeta. Kind of experiment: SPR competitive inhibition of 14-3-3 zeta binding to chip-coupled phosphorylated Raf-259 peptide. Particulars: 14-3-3 zeta 0.5-1.0 μM; competitor 1-50 μM; relative affinity only. As for the experimental part:
as §1

“And” between values parts separate entries of the source, which are not always exact repeats. Equal entries are not always repeated. Where a SMILES comes first, the peptide text is derived from it. Where no end group is shown, it is not given here. [ ]: non-standard residue; d: D form. pS = N[C@@H](COP(=O)(O)O)C(=O)O

In the case of “LSQRQRSTSTPNVHM [Raf-259, LSQRQRSTSTPNVHM, reference compound]”, on 14-3-3 zeta [1] (KD = koff/kon, read-out: apparent KD measured by SPR), the Kd is ~0.122 µM. In addition, the koff on 14-3-3 zeta [1] (in the presence of 50 μM free phosphorylated Raf-1 peptide, read-out: dissociation rate) is ~0.0028 s⁻¹. Also, the kon on 14-3-3 zeta [1] (read-out: association rate) was ~23000 M⁻¹ s⁻¹.
The IC50 is the concentration that gives 50% inhibition. A low value points to greater potency in that assay. In the case of `CC(C)C[C@H](N)C(=O)N[C@@H](CO)C(=O)N[C@@H](CCC(N)=O)C(=O)N[C@@H](CCCNC(=N)N)C(=O)N[C@@H](CCC(N)=O)C(=O)N[C@@H](CCCNC(=N)N)C(=O)N[C@@H](COP(=O)(O)O)C(=O)N[C@H](C(=O)N[C@@H](COP(=O)(O)O)C(=O)N[C@H](C(=O)N1CCC[C@H]1C(=O)N[C@@H](CC(N)=O)C(=O)N[C@H](C(=O)N[C@@H](Cc1c[nH]cn1)C(=O)N[C@@H](C)C(=O)O)C(C)C)[C@@H](C)O)[C@@H](C)O` [pS-Raf-257,259] (H-LSQRQR[pS]T[pS]TPNVHA-OH), the IC50 at 14-3-3 beta, at 14-3-3 tau, on 14-3-3 eta and at 14-3-3 zeta [2] was > 50 µM in each case.
As for `CC(C)C[C@H](N)C(=O)N[C@@H](CO)C(=O)N[C@@H](CCC(N)=O)C(=O)N[C@@H](CCCNC(=N)N)C(=O)N[C@@H](CCC(N)=O)C(=O)N[C@@H](CCCNC(=N)N)C(=O)N[C@@H](COP(=O)(O)O)C(=O)N[C@H](C(=O)N[C@@H](CO)C(=O)N[C@H](C(=O)N1CCC[C@H]1C(=O)N[C@@H](CC(N)=O)C(=O)N[C@H](C(=O)N[C@@H](Cc1c[nH]cn1)C(=O)N[C@@H](C)C(=O)O)C(C)C)[C@@H](C)O)[C@@H](C)O` [pS-Raf-257] (H-LSQRQR[pS]TSTPNVHA-OH), the half-inhibitory concentration (IC50) on 14-3-3 beta, at 14-3-3 tau, at 14-3-3 eta and at 14-3-3 zeta [2] was > 50 µM in each case.
At 14-3-3 zeta [2], `CC(C)C[C@H](N)C(=O)N[C@@H](CO)C(=O)N[C@@H](CCC(N)=O)C(=O)N[C@@H](C)C(=O)N[C@@H](CCC(N)=O)C(=O)N[C@@H](CCCNC(=N)N)C(=O)N[C@@H](CO)C(=O)N[C@H](C(=O)N[C@@H](COP(=O)(O)O)C(=O)N[C@H](C(=O)N1CCC[C@H]1C(=O)N[C@@H](CC(N)=O)C(=O)N[C@H](C(=O)N[C@@H](Cc1c[nH]cn1)C(=O)N[C@@H](C)C(=O)O)C(C)C)[C@@H](C)O)[C@@H](C)O` [Peptide 254RA] (H-LSQAQRST[pS]TPNVHA-OH) gave an IC50 of 9 µM.
For the compound `CC(C)C[C@H](N)C(=O)N[C@@H](CO)C(=O)N[C@@H](CCC(N)=O)C(=O)N[C@@H](C)C(=O)N[C@@H](CCC(N)=O)C(=O)N[C@@H](C)C(=O)N[C@@H](CO)C(=O)N[C@H](C(=O)N[C@@H](COP(=O)(O)O)C(=O)N[C@H](C(=O)N1CCC[C@H]1C(=O)N[C@@H](CC(N)=O)C(=O)N[C@H](C(=O)N[C@@H](Cc1c[nH]cn1)C(=O)N[C@@H](C)C(=O)O)C(C)C)[C@@H](C)O)[C@@H](C)O` [254/256RA] (H-LSQAQAST[pS]TPNVHA-OH), the IC50 on 14-3-3 beta, at 14-3-3 tau, on 14-3-3 eta and on 14-3-3 zeta [2] was > 50 µM throughout.
On 14-3-3 zeta [2], `CC(C)C[C@H](N)C(=O)N[C@@H](CO)C(=O)N[C@@H](CCC(N)=O)C(=O)N[C@@H](C)C(=O)N[C@@H](CCCNC(=N)N)C(=O)N[C@@H](CCC(N)=O)C(=O)N[C@@H](CO)C(=O)N[C@H](C(=O)N[C@@H](COP(=O)(O)O)C(=O)N[C@H](C(=O)N1CCC[C@H]1C(=O)N[C@@H](CC(N)=O)C(=O)N[C@H](C(=O)N[C@@H](Cc1c[nH]cn1)C(=O)N[C@@H](C)C(=O)O)C(C)C)[C@@H](C)O)[C@@H](C)O` [Peptide R-4] (H-LSQARQST[pS]TPNVHA-OH) yielded an IC50 of 11 µM.
Still for that read-out and setting: to `CC(C)C[C@H](N)C(=O)N[C@@H](CO)C(=O)N[C@@H](CCC(N)=O)C(=O)N[C@@H](C)C(=O)N[C@@H](CCC(N)=O)C(=O)N[C@@H](CO)C(=O)N[C@@H](CCCNC(=N)N)C(=O)N[C@H](C(=O)N[C@@H](COP(=O)(O)O)C(=O)N[C@H](C(=O)N1CCC[C@H]1C(=O)N[C@@H](CC(N)=O)C(=O)N[C@H](C(=O)N[C@@H](Cc1c[nH]cn1)C(=O)N[C@@H](C)C(=O)O)C(C)C)[C@@H](C)O)[C@@H](C)O` [Peptide R-2] (H-LSQAQSRT[pS]TPNVHA-OH) belongs > 50 µM.
On to `CC(C)C[C@H](N)C(=O)N[C@@H](CO)C(=O)N[C@@H](CCC(N)=O)C(=O)N[C@@H](CCCNC(=N)N)C(=O)N[C@@H](CCC(N)=O)C(=O)N[C@@H](C)C(=O)N[C@@H](CO)C(=O)N[C@H](C(=O)N[C@@H](COP(=O)(O)O)C(=O)N[C@H](C(=O)N1CCC[C@H]1C(=O)N[C@@H](CC(N)=O)C(=O)N[C@H](C(=O)N[C@@H](Cc1c[nH]cn1)C(=O)N[C@@H](C)C(=O)O)C(C)C)[C@@H](C)O)[C@@H](C)O` [Peptide 256RA] (H-LSQRQAST[pS]TPNVHA-OH), for which, at 14-3-3 zeta [2], the IC50 worked out at 19 µM.
Turning to `CSCC[C@H](NC(=O)[C@H](Cc1c[nH]cn1)NC(=O)[C@@H](NC(=O)[C@H](CC(N)=O)NC(=O)[C@H](C)NC(=O)[C@@H](NC(=O)[C@H](COP(=O)(O)O)NC(=O)[C@@H](NC(=O)[C@H](CO)NC(=O)[C@H](CCCNC(=N)N)NC(=O)[C@H](CCC(N)=O)NC(=O)[C@H](CCCNC(=N)N)NC(=O)[C@H](CCC(N)=O)NC(=O)[C@H](CO)NC(=O)[C@@H](N)CC(C)C)[C@@H](C)O)[C@@H](C)O)C(C)C)C(=O)O` [PA] (H-LSQRQRST[pS]TANVHM-OH), the IC50 on 14-3-3 beta is 24 µM; on 14-3-3 tau, 27 µM; at 14-3-3 eta, 20 µM; on 14-3-3 zeta [2], ~25 µM and 25 µM.

The record behind these values is patent publication US6207393A, “Inhibition of intracellular signal transduction by 14-3-3-binding peptides” (Washington University, priority 1999, dated 2001).
